What all share (assay): cell-based
The target of test [1] is T1, Kappa opioid receptor (KOR) (Homo sapiens, UniProt P41145).
Test [2] addresses T1, Kappa opioid receptor (KOR). The source holds these as a separate data set.
The target is the same in test [3]. This is another data set of the same source.

pEC50: −log10 of the molar value. Like-named read-outs stand apart in the source and are kept apart here.

Here are results for seven compounds from patent US20250100987A1 (priority 2021, published 2025).

T1 sequence (P41145 whole entry): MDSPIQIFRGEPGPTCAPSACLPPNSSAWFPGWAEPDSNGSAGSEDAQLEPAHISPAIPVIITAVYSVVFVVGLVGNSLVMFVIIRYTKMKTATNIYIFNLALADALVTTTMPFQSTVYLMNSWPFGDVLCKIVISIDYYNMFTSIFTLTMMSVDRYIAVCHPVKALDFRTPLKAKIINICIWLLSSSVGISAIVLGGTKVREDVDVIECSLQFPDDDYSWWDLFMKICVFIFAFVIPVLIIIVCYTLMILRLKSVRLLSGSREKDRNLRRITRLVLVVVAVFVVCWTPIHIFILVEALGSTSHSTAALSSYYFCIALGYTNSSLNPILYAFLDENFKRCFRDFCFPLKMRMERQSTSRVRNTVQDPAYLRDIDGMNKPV

By pEC50 is commonly meant the EC50 on a negative log10 scale, so that one unit is a factor of ten. What is called inhibition is the percentage by which the read-out fell short of the control. For the compound `COC(=O)[C@@H]1C[C@H](OC(C)=O)C(=O)[C@@H]2[C@@]3(C)C[C@@H](c4ccoc4)CC(=O)[C@@H]3CC[C@]21C` (racemic) [ALB-230937, O6C-20-nor-SalA racemic mixture], the negative-log EC50 (pEC50) was > 9.00 in test [1] (EC50 Potency Score), > 10.00 in test [2] and > 9.00 in test [3] (EC50 Potency Score). In addition, the inhibition at 0.0001 µM in test [2] (read-out: inhibition of cAMP production) was 100%.
For the compound `COC(=O)[C@@H]1C[C@@H](OC(C)=O)C(=O)[C@@H]2[C@@]3(C)C[C@@H](c4ccoc4)CC(=O)[C@@H]3CC[C@]21C` [ALB-230935, 2-cpi-O6C-20-nor-SalA], the pEC50 in test [1] (EC50 Potency Score) and in test [3] (EC50 Potency Score) was 7.00 to 9.00 each time.
In the case of `COCO[C@H]1C[C@@H](C(=O)OC)[C@]2(C)CC[C@H]3C(=O)C[C@H](c4ccoc4)C[C@@H]3[C@H]2C1=O` [ALB-231273], the pEC50 is > 9.00 in test [1] (EC50 Potency Score), > 10.00 in test [1] (estimated EC50), > 9.00 in test [3] (EC50 Potency Score) and > 10.00 in test [3] (estimated EC50).
Turning to `COC(=O)[C@@H]1C[C@H](O)C(=O)[C@@H]2[C@H]3C[C@@H](c4ccoc4)CC(=O)[C@@H]3CC[C@]21C` [ALB-231274, O6C-20-nor-SalB], the pEC50 in test [1] (EC50 Potency Score) is 6.00 to 7.00; in test [3] (EC50 Potency Score) it was 5.00 to 6.00.
In the case of `COC(=O)[C@@H]1C[C@H](OC(=O)/C=C/c2ccccc2)C(=O)[C@@H]2[C@H]3C[C@@H](c4ccoc4)CC(=O)[C@@H]3CC[C@]21C` [ALB-231360], the pEC50 in test [1] (EC50 Potency Score) is 5.00 to 6.00; in test [2], ~4.34; in test [3] (EC50 Potency Score), 5.00 to 6.00.
As to “O6C-20-nor-SalA Enantiomer A [ALB-230936]”, the negative logarithm of the EC50 (pEC50) in test [1] (read-out: EC50 Potency Score) and in test [3] (read-out: EC50 Potency Score) was > 9.00 each time.
Regarding “O6C-20-nor-SalA Enantiomer B [ALB-230932]”, the pEC50 in test [1] (read-out: EC50 Potency Score) and in test [3] (read-out: EC50 Potency Score) was 7.00 to 9.00 each time.
